Source: patent publication US9355787B2, “Method of forming rigid imide material from soluble amide ester functionalized precursors” (Colorado School of Mines, priority 2013, dated 2016)

Assay: Qualitative solubility of diester-diacid monomers in organic solvents

Compound | Solubility of monomer or dianhydride, in words
CCCCCCOC(=O)c1ccc2c3ccc(C(=O)O)c4c(C(=O)OCCCCCC)ccc(c5ccc(C(=O)O)c1c52)c43 [Monomer 2c, di-N-hexyl ester of perylene-3,4,9,10 tetracarboxylic acid] | soluble in polar aprotic solvents like NMP, and DMSO
CCCCC(CC)COC(=O)c1ccc2c3ccc(C(=O)O)c4c(C(=O)OCC(CC)CCCC)ccc(c5ccc(C(=O)O)c1c52)c43 (stereo not drawn) [Monomer 2d, di-2-ethy hexyl ester of perylene-3,4,9,10 tetracarboxylic acid] | soluble in polar aprotic solvents like NMP, and DMSO
O=C1OC(=O)c2ccc3c4ccc5c6c(ccc(c7ccc1c2c73)c64)C(=O)OC5=O [PTDA, 3,4,9,10-perylenetetracarboxylic dianhydride] | insoluble in all solvents
di-ethyl ester of NTDA [Monomer 1b] | soluble in most of the organic solvents
di-hexyl ester of NTDA [Monomer 1c] | soluble in most of the organic solvents
di-methyl ester of NTDA [Monomer 1a] | soluble in most of the organic solvents
